PMC3604073, “Chemerin Is an Antimicrobial Agent in Human Epidermis” (PLoS ONE, 2013)

B1: pro-chem163S: chemerin precursor (holoprotein) with the inhibitory C-terminal peptide (protein, UniProt Q99969 21-163, looked up)
pro-form: ELTEAQRRGLQVALEEFHKHPPVQWAFQETSVESAVDTPFPAGIFVRLEFKLQQTSCRKRDWKKPECKVRPNGRKRKCLACIKLGSEDKVLGRLVHCPIETQVLREAEEHQETQCLRVQRAGEDPHSFYFPGQFAFSKALPRS
modifications: pro-form

Legend:
E. coli ATCC 25922 = experiment: Radial diffusion assay (RDA); type: cell-based; settings: peptides at 100 µM, low salt conditions
Experimental: The indicated bacteria were grown to mid-logarithmic phase in 10 ml of full-strength (3% w/v) TSB as previously described. The microorganisms were then washed once with 10 mM Tris, pH 7.4. 4×10^6 bacterial CFUs were then added to 15 ml of the underlay agarose gel, consisting of 0.03% (w/v) TSB, 1% (w/v) low electroendosmosis type (EEO) agarose (Sigma) and 0.02% (v/v) Tween 20 (Sigma), with or without 0.15 M NaCl. The underlay was poured into a Ø 144 mm Petri dish. After agarose solidification, 4 mm-diameter wells were punched and 6 µl of chemerin-derived peptides or LL37 (Innovagen AB) was added to each well. Plates were incubated at 37°C for 3 hours to allow diffusion of the peptides. The underlay gel was then covered with 15 ml of molten overlay (6% TSB and 1% Low-EEO agarose in dH2O). Antimicrobial activity of a peptide was visualized as a zone of clearing around each well after 18–24 hours of incubation at 37°C.

E. coli = settings: evaluated at 2 µM; cited from earlier work

Row | Molecule | inhibition of growth zones in RDA (E. coli ATCC 25922) | E. coli survival (E. coli) [%]
1 | RKCLACIKLGSEDKVLGRLV [p6, synthetic chemerin-derived peptide] | inhibited growth zones | –
2 | DWKKPECKVRPNGRKRKCLA [p5, synthetic chemerin-derived peptide] | inhibited growth zones | –
3 | B1 | – | 59±13
